Patent US20150094474A1, “AGRICULTURAL CHEMICALS” (Redx Pharma Ltd., priority 2012, published 2015)

Key:
peas = experiment: Herbicidal bioassay, peas (% necrosis); type: in vivo
In short: (§1)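 Scoring of % necrosis followed EPPO guideline PP1/135 at specified growth intervals, five replicates per species and treatment. Plants at the 2-4 true leaf stage received Potter-tower sprays of DMSO-diluted compounds across six levels from 0.0001% to 0.05%, with water and DMSO controls.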

barley = experiment: Herbicidal bioassay, barley (% necrosis); type: in vivo
In short: as §1

CC(C=O)Oc1ccc(Oc2ccc(C(F)(F)F)cn2)cc1 (stereo not drawn) [Compound 28, 2-[4-[[5-(Trifluoromethyl)-2-pyridyl]oxy]phenoxy]propanal]
Sum of % necrosis in Peas (peas; Dose 0.000001, Day 0): C (less than 50% necrosis)
Sum of % necrosis in Peas (peas; Dose 0.000001, Day 1): C (less than 50% necrosis)
Sum of % necrosis in Peas (peas; Dose 0.000001, Day 3): C (less than 50% necrosis)
Sum of % necrosis in Peas (peas; Dose 0.000001, Day 7): C (less than 50% necrosis)
Sum of % necrosis in Peas (peas; Dose 0.000001, Day 10): C (less than 50% necrosis)
Sum of % necrosis in Peas (peas; Dose 0.000001, Day 14): C (less than 50% necrosis)
Sum of % necrosis in Peas (peas; Dose 0.000001, Day 21): B (50%-80% necrosis)
Sum of % necrosis in Peas (peas; Dose 0.000005, Day 0): C (less than 50% necrosis)
Sum of % necrosis in Peas (peas; Dose 0.000005, Day 1): C (less than 50% necrosis)
Sum of % necrosis in Peas (peas; Dose 0.000005, Day 3): C (less than 50% necrosis)
Sum of % necrosis in Peas (peas; Dose 0.000005, Day 7): B (50%-80% necrosis)
Sum of % necrosis in Peas (peas; Dose 0.000005, Day 10): B (50%-80% necrosis)
Sum of % necrosis in Peas (peas; Dose 0.000005, Day 14): B (50%-80% necrosis)
Sum of % necrosis in Peas (peas; Dose 0.000005, Day 21): A (over 80% necrosis)
Sum of % necrosis in Peas (peas; Dose 0.00001, Day 0): C (less than 50% necrosis)
Sum of % necrosis in Peas (peas; Dose 0.00001, Day 1): C (less than 50% necrosis)
Sum of % necrosis in Peas (peas; Dose 0.00001, Day 3): C (less than 50% necrosis)
Sum of % necrosis in Peas (peas; Dose 0.00001, Day 7): C (less than 50% necrosis)
Sum of % necrosis in Peas (peas; Dose 0.00001, Day 10): C (less than 50% necrosis)
Sum of % necrosis in Peas (peas; Dose 0.00001, Day 14): A (over 80% necrosis)
Sum of % necrosis in Peas (peas; Dose 0.00001, Day 21): A (over 80% necrosis)
Sum of % necrosis in Peas (peas; Dose 0.00005, Day 0): C (less than 50% necrosis)
Sum of % necrosis in Peas (peas; Dose 0.00005, Day 1): C (less than 50% necrosis)
Sum of % necrosis in Peas (peas; Dose 0.00005, Day 3): C (less than 50% necrosis)
Sum of % necrosis in Peas (peas; Dose 0.00005, Day 7): C (less than 50% necrosis)
Sum of % necrosis in Peas (peas; Dose 0.00005, Day 10): C (less than 50% necrosis)
Sum of % necrosis in Peas (peas; Dose 0.00005, Day 14): A (over 80% necrosis)
Sum of % necrosis in Peas (peas; Dose 0.00005, Day 21): A (over 80% necrosis)
Sum of % necrosis in Peas (peas; Dose 0.0001, Day 0): C (less than 50% necrosis)
Sum of % necrosis in Peas (peas; Dose 0.0001, Day 1): C (less than 50% necrosis)
Sum of % necrosis in Peas (peas; Dose 0.0001, Day 3): C (less than 50% necrosis)
Sum of % necrosis in Peas (peas; Dose 0.0001, Day 7): C (less than 50% necrosis)
Sum of % necrosis in Peas (peas; Dose 0.0001, Day 10): C (less than 50% necrosis)
Sum of % necrosis in Peas (peas; Dose 0.0001, Day 14): A (over 80% necrosis)
Sum of % necrosis in Peas (peas; Dose 0.0001, Day 21): A (over 80% necrosis)
Sum of % necrosis in Peas (peas; Dose 0.0005, Day 0): C (less than 50% necrosis)
Sum of % necrosis in Peas (peas; Dose 0.0005, Day 1): C (less than 50% necrosis)
Sum of % necrosis in Peas (peas; Dose 0.0005, Day 3): C (less than 50% necrosis)
Sum of % necrosis in Peas (peas; Dose 0.0005, Day 7): B (50%-80% necrosis)
Sum of % necrosis in Peas (peas; Dose 0.0005, Day 10): B (50%-80% necrosis)
Sum of % necrosis in Peas (peas; Dose 0.0005, Day 14): A (over 80% necrosis)
Sum of % necrosis in Peas (peas; Dose 0.0005, Day 21): A (over 80% necrosis)
Sum of % necrosis in barley (barley; Dose 0.000001, Day 0): C (less than 50% necrosis)
Sum of % necrosis in barley (barley; Dose 0.000001, Day 1): C (less than 50% necrosis)
Sum of % necrosis in barley (barley; Dose 0.000001, Day 3): C (less than 50% necrosis)
Sum of % necrosis in barley (barley; Dose 0.000001, Day 7): C (less than 50% necrosis)
Sum of % necrosis in barley (barley; Dose 0.000001, Day 10): C (less than 50% necrosis)
Sum of % necrosis in barley (barley; Dose 0.000001, Day 14): C (less than 50% necrosis)
Sum of % necrosis in barley (barley; Dose 0.000001, Day 21): C (less than 50% necrosis)
Sum of % necrosis in barley (barley; Dose 0.000005, Day 0): C (less than 50% necrosis)
Sum of % necrosis in barley (barley; Dose 0.000005, Day 1): C (less than 50% necrosis)
Sum of % necrosis in barley (barley; Dose 0.000005, Day 3): C (less than 50% necrosis)
Sum of % necrosis in barley (barley; Dose 0.000005, Day 7): C (less than 50% necrosis)
Sum of % necrosis in barley (barley; Dose 0.000005, Day 10): C (less than 50% necrosis)
Sum of % necrosis in barley (barley; Dose 0.000005, Day 14): C (less than 50% necrosis)
Sum of % necrosis in barley (barley; Dose 0.000005, Day 21): C (less than 50% necrosis)
Sum of % necrosis in barley (barley; Dose 0.00001, Day 0): C (less than 50% necrosis)
Sum of % necrosis in barley (barley; Dose 0.00001, Day 1): C (less than 50% necrosis)
Sum of % necrosis in barley (barley; Dose 0.00001, Day 3): C (less than 50% necrosis)
Sum of % necrosis in barley (barley; Dose 0.00001, Day 7): C (less than 50% necrosis)
Sum of % necrosis in barley (barley; Dose 0.00001, Day 10): C (less than 50% necrosis)
Sum of % necrosis in barley (barley; Dose 0.00001, Day 14): C (less than 50% necrosis)
Sum of % necrosis in barley (barley; Dose 0.00001, Day 21): C (less than 50% necrosis)
Sum of % necrosis in barley (barley; Dose 0.00005, Day 0): C (less than 50% necrosis)
Sum of % necrosis in barley (barley; Dose 0.00005, Day 1): C (less than 50% necrosis)
Sum of % necrosis in barley (barley; Dose 0.00005, Day 3): C (less than 50% necrosis)
Sum of % necrosis in barley (barley; Dose 0.00005, Day 7): C (less than 50% necrosis)
Sum of % necrosis in barley (barley; Dose 0.00005, Day 10): C (less than 50% necrosis)
Sum of % necrosis in barley (barley; Dose 0.00005, Day 14): C (less than 50% necrosis)
Sum of % necrosis in barley (barley; Dose 0.00005, Day 21): C (less than 50% necrosis)
Sum of % necrosis in barley (barley; Dose 0.0001, Day 0): C (less than 50% necrosis)
Sum of % necrosis in barley (barley; Dose 0.0001, Day 1): C (less than 50% necrosis)
Sum of % necrosis in barley (barley; Dose 0.0001, Day 3): C (less than 50% necrosis)
Sum of % necrosis in barley (barley; Dose 0.0001, Day 7): C (less than 50% necrosis)
Sum of % necrosis in barley (barley; Dose 0.0001, Day 10): C (less than 50% necrosis)
Sum of % necrosis in barley (barley; Dose 0.0001, Day 14): C (less than 50% necrosis)
Sum of % necrosis in barley (barley; Dose 0.0001, Day 21): B (50%-80% necrosis)
Sum of % necrosis in barley (barley; Dose 0.0005, Day 0): C (less than 50% necrosis)
Sum of % necrosis in barley (barley; Dose 0.0005, Day 1): C (less than 50% necrosis)
Sum of % necrosis in barley (barley; Dose 0.0005, Day 3): C (less than 50% necrosis)
Sum of % necrosis in barley (barley; Dose 0.0005, Day 7): C (less than 50% necrosis)
Sum of % necrosis in barley (barley; Dose 0.0005, Day 10): C (less than 50% necrosis)
Sum of % necrosis in barley (barley; Dose 0.0005, Day 14): C (less than 50% necrosis)
Sum of % necrosis in barley (barley; Dose 0.0005, Day 21): A (over 80% necrosis)
